Assay results from patent publication US20220062317A1, “NA+/K+ ATPASE INHIBITORS FOR USE IN THE PREVENTION OR TREATMENT OF METASTASIS” (UNIVERSITÄT BASEL, priority 2018, published 2022).
“And” between values parts separate entries of the source, which are not always exact repeats. Identical values can stand only once.

Assays:
BR16 CTC cell line = test: 17-day treatment, WGBS and i-cisTarget analysis of DMRs that gain methylation; assay type: cell-based, human; settings: 20 nM, 17-day treatment
Method: (§1) In order to assess the effect of clustering on DNA methylation patterns and proliferation signature directly BR16 and BRx50 cell lines were cultured for 17 days to ensure that at least 4 divisions would take place. This is to allow proper time for DNA methylation remodeling to take place.
(§2) Under these conditions, for both CTC derived cell lines, a subset of cluster-associated hypomethylated DMRs from patient and xenografts regain ≥20% methylation.
(§3) Proteinase K digestion and bisulfite treatment was performed according to manufacturer's instructions for EZ DNA Methylation Direct Kit (Zymo, Cat #D5020). Bisulfite-treated DNA was eluted using 9 μl of Elution Buffer and used for library generation with TruSeq DNA methylation kit (Illumina, Cat #EGMK91396) according to manufacturer's instructions. For amplification, 18 cycles were performed using Failsafe Enzyme (Illumina, Cat #FSE51100) and indexes were introduced with Index Primers' Kit (Illumina, Cat #EGIDX81312). Library purification was performed using Agencourt AMPure XP beads at a ratio of 1:1 according to manufacturer's instructions. To avoid DNA loss during pipetting steps, Corning DeckWork low binding barrier pipet tips were used (Sigma, Cat #CLS4135-4X960EA). Library concentration was estimated using Qubit DS DNA HS Assay Kit according to manufacturer's instructions (Invitrogen, Cat #Q32854).
(§4) An enrichment score (ES) indicates the over- or underrepresentation of a certain object within a sample of many objects (=enrichment). […] A negative enrichment score indicates the opposite, namely that a feature is less present than to be expected by the values of other features in the sample. […] An enrichment score can be normalized by dividing a specific ES by the mean of the enrichment scores for all objects in the dataset to yield a normalized enrichment score (NES). Normalization of the enrichment score accounts for differences in gene set size and in correlations between gene sets and the expression dataset; therefore, a normalized enrichment scores (NES) can be used to compare analysis results across gene sets. Only TFBS with a NES score […] shown in the analysis.

BRx50 CTC cell line = test: as above; assay type: cell-based, human; settings: 20 nM
Method: as §1, §2, §3, §4

BR16 cells = test: Tail vein injection of in vitro pre-treated BR16 cells, metastasis seeding; assay type: in vivo, NSG mice
Method: To test whether ouabain and digitoxin would also enable CTC clusters disruption in vivo, the inventors took a dual approach. First, the inventors tested whether a 17-day in vitro treatment with ouabain and digitoxin would translate into a reduced ability of the treated cells to efficiently seed metastasis in untreated mice (FIG. 7A). To this end, upon treatment, BR16 cells stably expressing GFP-luciferase were injected into the tail vein of NSG mice and noninvasively monitored through luminescence imaging for their ability to seed and propagate metastatic lesions.
For tail vein experiments, NOD SCID Gamma (NSG) mice (Jackson Labs) were injected with 1×10^6 BR16-mCherry cells resuspended in 100 μl D-PBS and monitored with IVIS Lumina II (Perkin Elmer). For CTC xenograft mouse model isolation, 1×10^6 LM2-GFP, 1×10^6 BRx50-GFP or 1×10^6 BR16-GFP cells were resuspended in 100 μl of 50% Cultrex PathClear Reduced Growth Factor Basement Membrane Extract (R&D Biosystems, Cat #3533-010-02) in D-PBS and injected orthotopically in NSG mice. Blood draw was performed 4-5 weeks after tumor onset for LM2 cells, 5-6 months after tumor onset for BR16 and 6-7 months after tumor onset for BRx50 cells.

BR16 CTC-derived cells = test: FDA-approved compound screen for CTC cluster dissociation (high content imaging); assay type: cell-based, human; settings: even at lowest concentration tested (0.1 μM), 2 days, hypoxia
Method: In order to identify actionable vulnerabilities of CTC clusters, and to test whether the epigenetic and transcriptional features of clustered CTCs are reversible upon cluster dissociation into single cells the following steps were undertaken. First, the expression of all known cell-cell junction (CCJ) components in patient samples obtained from normal breast (TGCA REF), breast cancer (TOGA REF), single CTCs and CTC clusters were assessed (Aceto et al. Cell 2014). While breast cancer cells tend to only partially reduce their CCJ repertoire compared to normal breast cells, CTCs express only a small fraction of CCJ components, likely as a consequence to their increased motility. Yet, CTC clusters retain a higher number of CCJs as compared to single CTCs. […] To this end, 2′486 FDA-approved compounds were evaluated for their ability to dissociate clusters of human breast CTC-derived cells. Cluster dissociation was assessed using a high content screening microscope and comparing cells treated with each individual compound to steady state clustered BR16 cells and 40 μm-filtered BR16 single cell suspension as negative and positive controls, respectively (FIG. 4a). […] For the majority of the 2′486 FDA-approved compounds, when using a 5 μM concentration for 2 days in hypoxic conditions, no detectable reduction in cell viability (>70% viability) nor mean cluster size (>450 μm2) in BR16 CTC-derived cells was observed. […] These compounds include inhibitors of Na^+/K^+ ATPases (n=6), HDACs (n=2), nucleotide biosynthesis (n=5), kinases (n=4), GPCRs (n=2), cholesterol biosynthesis (n=1), nuclear export (n=1), tubulin (n=9), as well as DNA binding compounds (n=8) and antibiotics (n=1).
A library containing 2,486 FDA-approved compounds was purchased from the Nexus Platform ETH Zurich. Each compound was resuspended using CTC medium at a 15 μM concentration and 20 μl were aliquoted in duplicate in a total of 64 Flat Bottom Clear Ultra Low attachment 96-well plates (Corning, Cat #3474).
To reduce cluster size in CTC derived cell lines, a 40 μm cell strainer was used (Corning, Cat #431750). […] Plates were incubated in hypoxia (5% oxygen) for 2 days and then 20 μl were transferred into a 96 well Black/clear Tissue culture treated plate (BD Falcon, Cat #353219) containing 40 μl of D-PBS (Invitrogen, Cat #14190169) and stained for 1 hr at 37° C. with a final concentration of 4 μM Hoechst 34580 (Invitrogen, Cat #H21486), 2 μM TMRM (Invitrogen, Cat #T668) and 4 μM TOTO-3 (Invitrogen, Cat #T3604). For each plate, two positive controls (non-treated cells) and two negative controls (non-treated and […] cells) were included. Z-factors were calculated per individual plate using the following formula: Z′=1−3(σs+σc)/|μs−μc|^3 (σ: standard deviation, μ: mean, s: positive control and c: negative control) (Martin et al., PLoS One 9, e88338, 2014) and ranged between 0.62-0.937. Plates were scanned using Operetta High Content Imaging System (Perkin Elmer) and cluster analysis was performed using Harmony High Content Imaging and Analysis Software (Perkin Elmer).

[1] = test system: BRx50 human CTC-derived cells; test: as above; assay type: cell-based; settings: even at lowest concentration tested (0.1 μM)

Compound: C[C@H]1O[C@@H](O[C@H]2[C@@H](O)C[C@H](O[C@H]3[C@@H](O)C[C@H](O[C@H]4CC[C@@]5(C)[C@H](CC[C@@H]6[C@@H]5CC[C@]5(C)[C@@H](C7=CC(=O)OC7)CC[C@]65O)C4)O[C@@H]3C)O[C@@H]2C)C[C@H](O)[C@@H]1O [digitoxin, Digitoxin]
- NES score of TFBS BDP1 in DMRs with ≥20% gain in methylation (BR16 CTC cell line): 4.18,
- NES score of TFBS CEBPD in DMRs with ≥20% gain in methylation (BR16 CTC cell line): 3.76
- NES score of TFBS EZH2 in DMRs with ≥20% gain in methylation (BR16 CTC cell line): 4.63
- NES score of TFBS FOS in DMRs with ≥20% gain in methylation (BR16 CTC cell line): 6.40 and 3.63 and 3.25
- NES score of TFBS FOXG1/O1 in DMRs with ≥20% gain in methylation (BR16 CTC cell line): 3.61
- NES score of TFBS IRX3 in DMRs with ≥20% gain in methylation (BR16 CTC cell line): 5
- NES score of TFBS IRX6 in DMRs with ≥20% gain in methylation (BR16 CTC cell line): 5 and 3.67
- NES score of TFBS KDM5A in DMRs with ≥20% gain in methylation (BR16 CTC cell line): 4.355
- NES score of TFBS MEIS1 in DMRs with ≥20% gain in methylation (BR16 CTC cell line): 3.11
- NES score of TFBS RORA in DMRs with ≥20% gain in methylation (BR16 CTC cell line): 4.93 and 3.45
- NES score of TFBS SOX2 in DMRs with ≥20% gain in methylation (BR16 CTC cell line): 3.22
- NES score of TFBS SOX18 in DMRs with ≥20% gain in methylation (BR16 CTC cell line): 3.99 and 3.91
- NES score of TFBS STAT3 in DMRs with ≥20% gain in methylation (BR16 CTC cell line): 3.31
- NES score of TFBS YAP5 in DMRs with ≥20% gain in methylation (BR16 CTC cell line): 5.4 and 5.32 and 4.56
- NES score of TFBS ZNF92 in DMRs with ≥20% gain in methylation (BR16 CTC cell line): 3.44
- number of DMRs with ≥20% gain in methylation (BR16 CTC cell line): (n = 150)
- NES score of TFBS BCL11A in DMRs with ≥20% gain in methylation (BRx50 CTC cell line): 7.65
- NES score of TFBS BDP1 in DMRs with ≥20% gain in methylation (BRx50 CTC cell line): 6.83
- NES score of TFBS BHLHE40/4 in DMRs with ≥20% gain in methylation (BRx50 CTC cell line): 4.61
- NES score of TFBS FOS in DMRs with ≥20% gain in methylation (BRx50 CTC cell line): 4.2 and 3.4
- NES score of TFBS HMBOX1 in DMRs with ≥20% gain in methylation (BRx50 CTC cell line): 3.749
- NES score of TFBS HSF1 in DMRs with ≥20% gain in methylation (BRx50 CTC cell line): 7.2
- NES score of TFBS KDM5D in DMRs with ≥20% gain in methylation (BRx50 CTC cell line): 3.77
- NES score of TFBS LEF1 in DMRs with ≥20% gain in methylation (BRx50 CTC cell line): 3.01
- NES score of TFBS LSM6 in DMRs with ≥20% gain in methylation (BRx50 CTC cell line): 3.05
- NES score of TFBS OCT4 in DMRs with ≥20% gain in methylation (BRx50 CTC cell line): 3.49 and 3.4 and 3.37
- NES score of TFBS POU1F1 in DMRs with ≥20% gain in methylation (BRx50 CTC cell line): 4.02 and 3.98
- NES score of TFBS REST in DMRs with ≥20% gain in methylation (BRx50 CTC cell line): 4.85 and 3.16 and 3.11
- NES score of TFBS STAT3 in DMRs with ≥20% gain in methylation (BRx50 CTC cell line): 3.22
- NES score of TFBS ZKSCAN8 in DMRs with ≥20% gain in methylation (BRx50 CTC cell line): 4.32
- NES score of TFBS ZNF493 in DMRs with ≥20% gain in methylation (BRx50 CTC cell line): 3.88
- number of DMRs with ≥20% gain in methylation (BRx50 CTC cell line): (n = 124)
- expression of cleaved caspase 3 compared to control cells (BR16 cells; cancer cells in lungs, pre-treated cells, day 1): significant increase
- ability of BR16 cells to lodge in the lung tissue immediately after injection (bioluminescence flux) (BR16 cells; cells pre-treated 17 days in vitro, 20 nM, tail vein, day 0): did not affect
- ability to survive during the first day upon arrival (bioluminescence flux) (BR16 cells; cells pre-treated 17 days in vitro, 20 nM, tail vein, day 1): reduced ability to survive
- metastatic outgrowth (BR16 cells; pre-treated cells, no further treatment in vivo, 72 days upon injection): delayed metastatic outgrowth
- mean cluster size (BR16 CTC-derived cells): significant decrease in mean cluster size
- mean cluster size [1]: significant decrease in mean cluster size
